Measured values taken from US8735414B2 (priority 2009, dated 2014).

Each compound was assayed on bicistronic HCV replicon (replicon RNA, GenBank Accession No. AJ242654) (assay: HCV Replicon Assay). Details: Hepatitis C virus, 72 h, read-out: Replicon IC50.
Format: cell-based

First: Cc1cc2c(cc1F)cc(-c1ccc(S(=O)(=O)N[C@@H](C)C(F)(F)F)cn1)n2-c1ccc(C#N)o1 [compound 1060, 6-[1-(5-cyanofuran-2-yl)-5-fluoro-6-methyl-1H-indol-2-yl]-N-[(2S)-1,1,1-trifluoropropan-2-yl]pyridine-3-sulfonamide]
Second: Cc1cc2c(cc1F)cc(-c1ccc(S(=O)(=O)N[C@@H](C)C(F)(F)F)cn1)n2-c1cncs1 [compound 959, 6-[5-fluoro-6-methyl-1-(1,3-thiazol-5-yl)-1H-indol-2-yl]-N-[(2S)-1,1,1-trifluoropropan-2-yl]pyridine-3-sulfonamide]
The IC50 of the first is higher: 2000 to 5000 nM for the first, less than 500 nM for the second. The second is the more potent here.

Compared with `Cc1cc2c(C#N)c(-c3ccc(S(=O)(=O)N[C@H](C)C(F)(F)F)cn3)n(C3CCC3)c2cc1OC(F)F` [compound 665, 6-[3-cyano-1-cyclobutyl-6-(difluoromethoxy)-5-methyl-1H-indol-2-yl]-N-[(2R)-1,1,1-trifluoropropan-2-yl]pyridine-3-sulfonamide], `CCC(NS(=O)(=O)c1ccc(-c2c(C#N)c3cc(F)c(OC(F)F)cc3n2C2CCC2)nc1)C(F)(F)F` (centres unmarked) [compound 790, 6-[3-cyano-1-cyclobutyl-6-(difluoromethoxy)-5-fluoro-1H-indol-2-yl]-N-(1,1,1-trifluorobutan-2-yl)pyridine-3-sulfonamide] is lower in IC50: 500 to 2000 nM for the first, less than 500 nM for the second. The second is the more potent here.

`C=CCc1cc2c(cc1F)c(C#N)c(-c1ccc(S(=O)(=O)N[C@@H](C)C(F)(F)F)cn1)n2-c1ncccn1` [compound 967, 6-[3-cyano-5-fluoro-6-(prop-2-en-1-yl)-1-(pyrimidin-2-yl)-1H-indol-2-yl]-N-[(2S)-1,1,1-trifluoropropan-2-yl]pyridine-3-sulfonamide] and `C[C@H](NS(=O)(=O)c1ccc(-c2c(C#N)c3cc(F)c(CCO)cc3n2-c2ncccn2)nc1)C(F)(F)F` [compound 970, 6-[3-cyano-5-fluoro-6-(2-hydroxyethyl)-1-(pyrimidin-2-yl)-1H-indol-2-yl]-N-[(2S)-1,1,1-trifluoropropan-2-yl]pyridine-3-sulfonamide] cannot be ordered by IC50: less than 500 nM for the first, less than 500 nM for the second.

`Cc1ccc2c(C#N)c(-c3ccc(S(=O)(=O)N[C@@H](C)C4CC4)cn3)n(CC3CC3)c2c1` [compound 237, 6-[3-cyano-1-(cyclopropylmethyl)-6-methyl-1H-indol-2-yl]-N-[(1S)-1-cyclopropylethyl]pyridine-3-sulfonamide] and `C[C@H](NS(=O)(=O)c1ccc(-c2c(C#N)c3ccc(Cl)cc3n2C2CCC2)nc1)C1CC1` [compound 154, 6-(6-chloro-3-cyano-1-cyclobutyl-1H-indol-2-yl)-N-[(1S)-1-cyclopropylethyl]pyridine-3-sulfonamide] cannot be ordered by IC50: less than 500 nM for the first, less than 500 nM for the second.

`Cc1cc2c(cc1F)c(C#N)c(-c1ccc(S(=O)(=O)N[C@@H](C)C(F)(F)F)cn1)n2-c1ncc(F)cn1` [compound 924, 6-[3-cyano-5-fluoro-1-(5-fluoropyrimidin-2-yl)-6-methyl-1H-indol-2-yl]-N-[(2S)-1,1,1-trifluoropropan-2-yl]pyridine-3-sulfonamide] and `Cc1cc2c(cc1F)c(C#N)c(-c1ccc(S(=O)(=O)N[C@@H](C)C(F)(F)F)cn1)n2-c1ncccc1F` [compound 814, 6-[3-cyano-5-fluoro-1-(3-fluoropyridin-2-yl)-6-methyl-1H-indol-2-yl]-N-[(2S)-1,1,1-trifluoropropan-2-yl]pyridine-3-sulfonamide] cannot be ordered by IC50: less than 500 nM for the first, less than 500 nM for the second.

Compared with `CC(C)NS(=O)(=O)c1ccc(-c2c(C#N)c3ccc(C4CC4)cc3n2C2CCC2)cn1` [compound 27, 5-(3-cyano-1-cyclobutyl-6-cyclopropyl-1H-indol-2-yl)-N-(propan-2-yl)pyridine-2-sulfonamide], `CC(C)NS(=O)(=O)c1ccc(-c2c(C#N)c3cc(Cl)ccc3n2C2CCC2)cn1` [compound 28, 5-(5-chloro-3-cyano-1-cyclobutyl-1H-indol-2-yl)-N-(propan-2-yl)pyridine-2-sulfonamide] is higher in IC50: less than 500 nM for the first, 2000 to 5000 nM for the second.

`C[C@H](NS(=O)(=O)c1ccc(-c2c(C#N)c3cc(F)c(OC(F)F)cc3n2-c2ncccn2)nc1)C(F)(F)F` [compound 682, 6-[3-cyano-6-(difluoromethoxy)-5-fluoro-1-(pyrimidin-2-yl)-1H-indol-2-yl]-N-[(2S)-1,1,1-trifluoropropan-2-yl]pyridine-3-sulfonamide] and `CCc1cc2c(cc1F)c(C#N)c(-c1ccc(S(=O)(=O)N[C@H](C)C(F)(F)F)cn1)n2-c1ccccn1` [compound 879, 6-[3-cyano-6-ethyl-5-fluoro-1-(pyridin-2-yl)-1H-indol-2-yl]-N-[(2R)-1,1,1-trifluoropropan-2-yl]pyridine-3-sulfonamide] cannot be ordered by IC50: less than 500 nM for the first, less than 500 nM for the second.

`COC(=O)c1c(-c2ccc(S(=O)(=O)N[C@@H](C)C(F)(F)F)cn2)n(C2CCCC2)c2cc(C)c(F)cc12` [compound 756, (S)-methyl 1-cyclopentyl-5-fluoro-6-methyl-2-(5-(N-(1,1,1-trifluoropropan-2-yl)sulfamoyl)pyridin-2-yl)-1H-indole-3-carboxylate] and `Cc1cc2c(cc1F)c(C#N)c(-c1ccc(S(=O)(=O)N[C@H](C)C(F)(F)F)cn1)n2C1CCCC1` [compound 409, 6-(3-cyano-1-cyclopentyl-5-fluoro-6-methyl-1H-indol-2-yl)-N-[(2R)-1,1,1-trifluoropropan-2-yl]pyridine-3-sulfonamide] cannot be ordered by IC50: less than 500 nM for the first, less than 500 nM for the second.

`CC(C)(NS(=O)(=O)c1ccc(-c2c(C#N)c3cc(F)c(OC(F)F)cc3n2C2CCCC2)nc1)C(F)(F)F` [compound 862, 6-[3-cyano-1-cyclopentyl-6-(difluoromethoxy)-5-fluoro-1H-indol-2-yl]-N-(1,1,1-trifluoro-2-methylpropan-2-yl)pyridine-3-sulfonamide] and `Cc1cc2c(cc1F)c(C#N)c(-c1ccc(S(=O)(=O)N[C@H](C)C(F)(F)F)cn1)n2C1CCOCC1` [compound 749, 6-[3-cyano-5-fluoro-6-methyl-1-(tetrahydro-2H-pyran-4-yl)-1H-indol-2-yl]-N-[(2R)-1,1,1-trifluoropropan-2-yl]pyridine-3-sulfonamide] cannot be ordered by IC50: less than 500 nM for the first, less than 500 nM for the second.

First: CCc1cc2c(cc1F)c(C(N)=O)c(-c1ccc(S(=O)(=O)N[C@@H](C)C(F)(F)F)cn1)n2-c1ccccn1 [compound 909, 6-ethyl-5-fluoro-1-(pyridin-2-yl)-2-(5-{[(2S)-1,1,1-trifluoropropan-2-yl]sulfamoyl}pyridin-2-yl)-1H-indole-3-carboxamide]
Second: Cc1ccc2c(C#N)c(-c3ccc(S(=O)(=O)N[C@H](C)C(F)(F)F)cn3)n(-c3ccccn3)c2c1 [compound 671, 6-[3-cyano-6-methyl-1-(pyridin-2-yl)-1H-indol-2-yl]-N-[(2R)-1,1,1-trifluoropropan-2-yl]pyridine-3-sulfonamide]
The IC50 of the first is higher: 500 to 2000 nM for the first, less than 500 nM for the second. The second is the more potent here.

`Cc1c(F)cc2c(C#N)c(-c3ncc(S(=O)(=O)NC(CF)CF)cn3)n(C3CCC3)c2c1F` [compound 668, 2-(3-cyano-1-cyclobutyl-5,7-difluoro-6-methyl-1H-indol-2-yl)-N-(1,3-difluoropropan-2-yl)pyrimidine-5-sulfonamide] and `Cc1cc2c(cc1F)c(C#N)c(-c1ncc(S(=O)(=O)N[C@@H](C)C(F)(F)F)cn1)n2C1CCCCC1` [compound 679, 2-(3-cyano-1-cyclohexyl-5-fluoro-6-methyl-1H-indol-2-yl)-N-[(2S)-1,1,1-trifluoropropan-2-yl]pyrimidine-5-sulfonamide] cannot be ordered by IC50: less than 500 nM for the first, less than 500 nM for the second.

`N#Cc1c(-c2ccc(S(=O)(=O)NC(CF)CF)cn2)n(C2CCC2)c2ccc(C(F)F)cc12` [compound 378, 6-[3-cyano-1-cyclobutyl-5-(difluoromethyl)-1H-indol-2-yl]-N-(1,3-difluoropropan-2-yl)pyridine-3-sulfonamide] and `C[C@H](NS(=O)(=O)c1ccc(-c2c(C#N)c3cc(F)ccc3n2C2CCC2)nc1)C(F)(F)F` [compound 434, 6-(3-cyano-1-cyclobutyl-5-fluoro-1H-indol-2-yl)-N-[(2S)-1,1,1-trifluoropropan-2-yl]pyridine-3-sulfonamide] cannot be ordered by IC50: less than 500 nM for the first, less than 500 nM for the second.

Compared with `CC(C)NS(=O)(=O)c1cnc(-c2c(C#N)c3ccc(Cl)cc3n2C(C)C)nc1` [compound 156, 2-[6-chloro-3-cyano-1-(propan-2-yl)-1H-indol-2-yl]-N-(propan-2-yl)pyrimidine-5-sulfonamide], `C[C@H](NS(=O)(=O)c1ccc(-c2c(C#N)c3cc(Cl)ccc3n2C2CCCC2)nc1)C1CC1` [compound 118, 6-(5-chloro-3-cyano-1-cyclopentyl-1H-indol-2-yl)-N-[(1S)-1-cyclopropylethyl]pyridine-3-sulfonamide] is lower in IC50: 500 to 2000 nM for the first, less than 500 nM for the second. The second is the more potent here.

First: N#Cc1c(-c2ccc(S(N)(=O)=O)cn2)n(C2CCC2)c2cc(C3CC3)ccc12 [compound 90, 6-(3-cyano-1-cyclobutyl-6-cyclopropyl-1H-indol-2-yl)pyridine-3-sulfonamide]
Second: COc1ccc2c(C#N)c(-c3ccc(S(=O)(=O)NC4CC(F)(F)C4)cn3)n(C3CCCC3)c2c1 [compound 246, 6-(3-cyano-1-cyclopentyl-6-methoxy-1H-indol-2-yl)-N-(3,3-difluorocyclobutyl)pyridine-3-sulfonamide]
The IC50 of the first is higher: 2000 to 5000 nM for the first, 500 to 2000 nM for the second.

Compared with `CC(C)(C)NS(=O)(=O)c1ccc(-c2c(C#N)c3cc(F)ccc3n2-c2ncccn2)nc1` [compound 823, N-tert-butyl-6-[3-cyano-5-fluoro-1-(pyrimidin-2-yl)-1H-indol-2-yl]pyridine-3-sulfonamide], `Cc1cc2c(cc1F)c(C(=O)O)c(-c1ccc(S(=O)(=O)NC(C)(C)C)cn1)n2C1CCC1` [compound 776, 2-[5-(tert-butylsulfamoyl)pyridin-2-yl]-1-cyclobutyl-5-fluoro-6-methyl-1H-indole-3-carboxylic acid] is lower in IC50: 500 to 2000 nM for the first, less than 500 nM for the second.

`C[C@H](C1CC1)n1c(-c2ccc(NS(=O)(=O)C(C)(C)C)nc2)c(C(=O)O)c2cc(F)c(OC(F)F)cc21` [compound 1084, 2-{6-[(tert-butylsulfonyl)amino]pyridin-3-yl}-1-[(1R)-1-cyclopropylethyl]-6-(difluoromethoxy)-5-fluoro-1H-indole-3-carboxylic acid] and `Cc1cc2c(cc1F)c(C#N)c(-c1ncc(S(=O)(=O)N[C@@H](C)C(F)(F)F)cn1)n2C1CCOCC1` [compound 753, 2-[3-cyano-5-fluoro-6-methyl-1-(tetrahydro-2H-pyran-4-yl)-1H-indol-2-yl]-N-[(2S)-1,1,1-trifluoropropan-2-yl]pyrimidine-5-sulfonamide] cannot be ordered by IC50: less than 500 nM for the first, less than 500 nM for the second.
